Values joined by “and” are separate entries in the source; they are usually repeats but may differ in a detail not shown here. Equal entries are not always repeated. Where two headings read alike, the source gives them in different places.
Assays:
[1] = system: bacteria on the surface of peach; assay type: cell-based
[2] = system: fungi on the surface of peach; assay type: cell-based
[3] = system: bacteria on the surface of potato; assay type: cell-based
[4] = system: fungi on the surface of potato; assay type: cell-based
[5] = system: bacteria on the surface of lettuce; assay type: cell-based
[6] = system: fungi on the surface of lettuce; assay type: cell-based
[7] = system: bacteria on the surface of apple; assay type: cell-based
[8] = system: fungi on the surface of apple; assay type: cell-based
[9] = system: bacteria on the surface of strawberry; assay type: cell-based
[10] = system: fungi on the surface of strawberry; assay type: cell-based
[11] = system: bacteria on the surface of avocado; assay type: cell-based
[12] = system: fungi on the surface of avocado; assay type: cell-based
[13] = system: bacteria on the surface of rockmelon; assay type: cell-based
[14] = system: fungi on the surface of rockmelon; assay type: cell-based
[15] = system: bacteria on the surface of orange; assay: Orange (L) laboratory dipping, bacteria; assay type: cell-based; conditions: concentrations of 3, 10 & 30 ppm iodine used
[16] = system: fungi on the surface of orange; assay: Orange (L) laboratory dipping, fungi; assay type: cell-based; conditions: concentrations of 3, 10 & 30 ppm iodine used
[17] = system: bacteria on the surface of nectarine; assay: Nectarine (L) laboratory dipping, bacteria; assay type: cell-based; conditions: concentrations of 3, 10 & 30 ppm iodine used
[18] = system: fungi on the surface of nectarine; assay: Nectarine (L) laboratory dipping, fungi; assay type: cell-based; conditions: concentrations of 3, 10 & 30 ppm iodine used
[19] = system: bacteria on the surface of potato; assay: Potato (L) laboratory dipping, bacteria; assay type: cell-based; conditions: concentrations of 3, 10 & 30 ppm iodine used
[20] = system: fungi on the surface of potato; assay: Potato (L) laboratory dipping, fungi; assay type: cell-based; conditions: concentrations of 3, 10 & 30 ppm iodine used
[21] = system: bacteria on the surface of tomato; assay: Tomato (L) laboratory dipping, bacteria; assay type: cell-based; conditions: 10, 20, 30 ppm iodine
[22] = system: fungi on the surface of tomato; assay: Tomato (L) laboratory dipping, fungi; assay type: cell-based; conditions: 10, 20, 30 ppm iodine
[23] = system: bacteria on the surface of lettuce; assay: Lettuce (L) laboratory dipping, bacteria; assay type: cell-based; conditions: 10, 20, 30 ppm iodine
[24] = system: fungi on the surface of lettuce; assay: Lettuce (L) laboratory dipping, fungi; assay type: cell-based; conditions: 10, 20, 30 ppm iodine
[25] = system: bacteria on bean sprouts; assay: Bean sprouts (ISU), bacteria; assay type: cell-based; conditions: 10, 20, 30 ppm iodine
[26] = system: fungi on bean sprouts; assay: Bean sprouts (ISU), fungi; assay type: cell-based; conditions: 10, 20, 30 ppm iodine
[27] = system: bacteria and fungi found on fresh fruit and vegetables; assay: Summary of efficacy results: comparison bacteria/fungi and iodine/chlorine; assay type: cell-based
[28] = system: naturally occurring surface organisms on fruits and vegetables; assay: Dipping time effect on efficacy (potatoes, oranges); assay type: cell-based, bacteria and fungi; conditions: iodine dips, one to four minutes
[29] = system: Escherichia coli; conditions: compared with chlorine, especially at the higher temperature and pH values; cited from earlier work

## II
[1]
  Bacteria—dose for ~1.5 log10 reduction: 10 ppm
[2]
  Fungi—dose for ~1.5 log10 reduction: 30 ppm
[3]
  Bacterial population per cm^2 Actual count: 370 per cm^2 and 260 per cm^2 and 249 per cm^2
  Bacterial population per cm^2 Log10 count: 2.54 log10 units and 2.34 log10 units and 2.38 log10 units
  Bacterial population per cm^2 Log10 reduction: 0.39 ab log10 units and 0.58 b log10 units and 0.54 b log10 units
  Bacteria—dose for ~1.5 log10 reduction: >30 ppm
[4]
  Fungal population per cm^2 Actual count: 2 per cm^2 and 3 per cm^2
  Fungi—dose for ~1.5 log10 reduction: 10 ppm
[5]
  Bacteria—dose for ~1.5 log10 reduction: 20 ppm
[6]
  Fungal population per cm^2 Log10 count: −0.12 log10 units and −0.35 log10 units
  Fungi—dose for ~1.5 log10 reduction: 10 ppm
[7]
  Bacteria—dose for ~1.5 log10 reduction: 10 ppm
[8]
  Fungi—dose for ~1.5 log10 reduction: 10 ppm
[9]
  Bacteria—dose for ~1.5 log10 reduction: >30 ppm
[10]
  Fungi—dose for ~1.5 log10 reduction: 30 ppm
[11]
  Bacteria—dose for ~1.5 log10 reduction: 10 ppm
[12]
  Fungi—dose for ~1.5 log10 reduction: 20 ppm
[13]
  Bacterial population per cm^2 Actual count: 19,514 per cm^2 and 14,456 per cm^2 and 10,028 per cm^2
  Bacterial population per cm^2 Log10 count: 4.26 log10 units and 4.15 log10 units and 3.98 log10 units
  Bacterial population per cm^2 Log10 reduction: 0.83 b log10 units and 0.93 bc log10 units and 1.10 cd log10 units
  Bacteria—dose for ~1.5 log10 reduction: >30 ppm
[14]
  Fungi—dose for ~1.5 log10 reduction: 20 ppm
[15]
  Bacteria—dose for ~1.5 log10 reduction: 30 ppm
[16]
  Fungi—dose for ~1.5 log10 reduction: 30 ppm
[17]
  Bacteria—dose for ~1.5 log10 reduction: 3.3 ppm
[18]
  Fungi—dose for ~1.5 log10 reduction: 10 ppm
[19]
  Bacteria—dose for ~1.5 log10 reduction: >30 ppm
[20]
  Fungi—dose for ~1.5 log10 reduction: >30 ppm
[21]
  Bacteria—dose for ~1.5 log10 reduction: 20 ppm
[22]
  Fungi—dose for ~1.5 log10 reduction: 20 ppm
[23]
  Bacteria—dose for ~1.5 log10 reduction: 30 ppm
[24]
  Fungi—dose for ~1.5 log10 reduction: >30 ppm
[25]
  Bacteria—dose for ~1.5 log10 reduction: 30 ppm
[26]
  Fungi—dose for ~1.5 log10 reduction: 30 ppm
[27]; Apples (ISU)
  Better Control of Bacteria/Fungi: Fungi
  Better control by iodine/chlorine: Iodine
[27]; Avocado (ISU)
  Better Control of Bacteria/Fungi: Bacteria
  Better control by iodine/chlorine: Iodine
[27]; Bean sprouts (ISU)
  Better control by iodine/chlorine: Iodine
[27]; Lettuce (ISU)
  Better Control of Bacteria/Fungi: Fungi
  Better control by iodine/chlorine: Iodine
[27]; Lettuce (L)
  Better Control of Bacteria/Fungi: Bacteria
  Better control by iodine/chlorine: Chlorine
[27]; Nectarine (L)
  Better Control of Bacteria/Fungi: Bacteria
  Better control by iodine/chlorine: Iodine
[27]; Orange (L)
  Better Control of Bacteria/Fungi: Bacteria
  Better control by iodine/chlorine: Chlorine
[27]; Peach (L)
  Better Control of Bacteria/Fungi: Bacteria
  Better control by iodine/chlorine: Iodine
[27]; Potato (ISU)
  Better Control of Bacteria/Fungi: Fungi
  Better control by iodine/chlorine: Iodine
[27]; Potato (L)
  Better Control of Bacteria/Fungi: Fungi
  Better control by iodine/chlorine: Iodine
[27]; Rockmelon (ISU)
  Better Control of Bacteria/Fungi: Fungi
  Better control by iodine/chlorine: Same effectiveness
[27]; Strawberry (ISU)
  Better Control of Bacteria/Fungi: Fungi
  Better control by iodine/chlorine: Iodine
[27]; Tomato (L)
  Better Control of Bacteria/Fungi: Fungi
  Better control by iodine/chlorine: Iodine
[27]; over the range of products and concentrations used
  effectiveness compared with an equivalent concentration of chlorine: considerably more effective
[28]
  effect of dip time on effectiveness: equivalent in effectiveness to doubling the dip concentration
[29]
  efficiency for the control of Escherichia coli in dirty water: greater than that of chlorine
